Values joined by “and” are separate entries in the source; they are usually repeats but may differ in a detail not shown here. Equal entries are not always repeated.
Legend:
[1] = system: hpol η; details: cited from earlier work
[2] = target: T1, hpol ι (Homo sapiens, UniProt Q9UNA4); details: cited from earlier work
T1 sequence (Q9UNA4 26-446): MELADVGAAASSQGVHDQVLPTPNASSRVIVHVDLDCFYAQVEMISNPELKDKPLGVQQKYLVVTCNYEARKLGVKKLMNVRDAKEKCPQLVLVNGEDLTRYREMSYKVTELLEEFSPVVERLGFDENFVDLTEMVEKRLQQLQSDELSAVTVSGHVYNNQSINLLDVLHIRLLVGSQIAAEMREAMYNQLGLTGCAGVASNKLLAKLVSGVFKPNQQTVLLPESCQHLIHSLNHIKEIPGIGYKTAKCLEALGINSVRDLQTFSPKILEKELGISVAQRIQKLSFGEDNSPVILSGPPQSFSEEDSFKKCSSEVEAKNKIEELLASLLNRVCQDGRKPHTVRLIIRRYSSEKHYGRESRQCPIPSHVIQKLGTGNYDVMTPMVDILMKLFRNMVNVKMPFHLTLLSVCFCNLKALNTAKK

[3] = target: T2, human DNA polymerase eta (hpol η) (Homo sapiens, UniProt Q9Y253); test: Fluorescence-based polymerase strand-displacement assay, hpol η; format: biochemical; details: for IC50: read-out: IC50 for inhibition of hpol η, 10 nM hpol η, 50 nM DNA, 0.1 mM dTTP, mean ± standard deviation, triplicate
T2 sequence (Q9Y253 1-437): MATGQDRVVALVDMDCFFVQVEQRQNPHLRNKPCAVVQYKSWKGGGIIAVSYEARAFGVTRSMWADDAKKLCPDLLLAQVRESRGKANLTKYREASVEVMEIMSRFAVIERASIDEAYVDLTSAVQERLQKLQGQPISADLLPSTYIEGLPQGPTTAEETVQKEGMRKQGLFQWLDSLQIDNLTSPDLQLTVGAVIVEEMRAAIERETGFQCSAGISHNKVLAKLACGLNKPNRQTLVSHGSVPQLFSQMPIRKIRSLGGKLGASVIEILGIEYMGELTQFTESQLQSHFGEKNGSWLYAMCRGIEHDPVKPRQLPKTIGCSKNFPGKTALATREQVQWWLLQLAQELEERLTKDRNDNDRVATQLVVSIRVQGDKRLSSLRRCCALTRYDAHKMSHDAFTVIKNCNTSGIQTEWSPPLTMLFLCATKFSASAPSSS

[4] = target: T3, hetero-dimeric hpol γ (Homo sapiens, UniProt P54098); test: Fluorescence-based polymerase assay, hpol γ; format: biochemical; details: read-out: IC50 for inhibition of hpol γ; 10 nM hpol γ, 50 nM DNA; mean ± standard deviation
T3 sequence (P54098 1-1239): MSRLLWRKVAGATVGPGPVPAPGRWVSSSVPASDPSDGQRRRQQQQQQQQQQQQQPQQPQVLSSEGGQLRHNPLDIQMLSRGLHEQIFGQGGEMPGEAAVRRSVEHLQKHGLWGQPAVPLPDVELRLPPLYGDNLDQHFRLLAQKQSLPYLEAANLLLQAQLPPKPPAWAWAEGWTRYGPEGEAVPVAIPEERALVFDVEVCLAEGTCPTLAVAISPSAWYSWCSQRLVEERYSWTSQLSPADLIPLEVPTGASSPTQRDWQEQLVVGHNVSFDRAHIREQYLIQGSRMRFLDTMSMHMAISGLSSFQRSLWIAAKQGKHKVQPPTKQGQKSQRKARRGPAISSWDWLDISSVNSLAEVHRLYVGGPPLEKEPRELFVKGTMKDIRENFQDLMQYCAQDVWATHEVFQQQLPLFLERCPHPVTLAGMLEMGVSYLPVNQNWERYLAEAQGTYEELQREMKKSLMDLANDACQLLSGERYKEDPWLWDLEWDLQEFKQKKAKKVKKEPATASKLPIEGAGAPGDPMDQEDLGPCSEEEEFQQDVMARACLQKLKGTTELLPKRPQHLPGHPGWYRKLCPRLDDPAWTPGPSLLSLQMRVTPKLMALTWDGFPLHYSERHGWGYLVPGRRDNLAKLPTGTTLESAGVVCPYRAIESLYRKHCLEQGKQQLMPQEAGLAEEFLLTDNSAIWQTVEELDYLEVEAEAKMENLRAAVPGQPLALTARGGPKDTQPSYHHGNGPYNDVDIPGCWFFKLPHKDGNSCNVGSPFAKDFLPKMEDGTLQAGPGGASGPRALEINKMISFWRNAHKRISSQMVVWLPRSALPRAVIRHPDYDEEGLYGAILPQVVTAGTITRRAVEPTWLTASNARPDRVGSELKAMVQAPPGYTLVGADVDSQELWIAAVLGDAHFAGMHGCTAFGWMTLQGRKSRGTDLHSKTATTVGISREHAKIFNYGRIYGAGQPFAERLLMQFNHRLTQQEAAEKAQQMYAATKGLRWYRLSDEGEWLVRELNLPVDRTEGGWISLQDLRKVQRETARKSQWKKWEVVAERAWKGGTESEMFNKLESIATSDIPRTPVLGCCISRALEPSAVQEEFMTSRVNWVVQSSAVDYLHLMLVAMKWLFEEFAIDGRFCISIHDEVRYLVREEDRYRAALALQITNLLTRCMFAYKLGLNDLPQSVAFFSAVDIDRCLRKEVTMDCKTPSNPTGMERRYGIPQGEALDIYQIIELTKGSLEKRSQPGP
T3 sequence (Q9UHN1 26-485 partner limits assumed): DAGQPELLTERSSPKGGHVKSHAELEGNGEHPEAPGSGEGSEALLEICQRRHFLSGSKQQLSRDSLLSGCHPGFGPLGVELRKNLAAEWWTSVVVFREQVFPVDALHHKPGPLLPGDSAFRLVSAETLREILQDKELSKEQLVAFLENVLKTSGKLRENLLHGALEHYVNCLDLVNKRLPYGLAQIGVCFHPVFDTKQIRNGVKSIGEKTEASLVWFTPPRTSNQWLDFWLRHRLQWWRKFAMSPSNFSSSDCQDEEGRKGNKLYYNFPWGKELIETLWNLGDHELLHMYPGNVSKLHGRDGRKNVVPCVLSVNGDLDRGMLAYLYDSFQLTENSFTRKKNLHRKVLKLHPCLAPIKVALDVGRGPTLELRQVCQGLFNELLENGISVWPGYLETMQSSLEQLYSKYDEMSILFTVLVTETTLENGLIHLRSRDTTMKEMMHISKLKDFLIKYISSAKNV

[5] = target: T4, human Y-family DNA polymerase kappa (hpol κ) (Homo sapiens, UniProt Q9UBT6); test: Fluorescence-based polymerase assay, hpol κ; format: biochemical; details: read-out: IC50 for inhibition of hpol κ; 3 nM hpol κ, 60 nM DNA; mean ± standard deviation
T4 sequence (Q9UBT6 19-526): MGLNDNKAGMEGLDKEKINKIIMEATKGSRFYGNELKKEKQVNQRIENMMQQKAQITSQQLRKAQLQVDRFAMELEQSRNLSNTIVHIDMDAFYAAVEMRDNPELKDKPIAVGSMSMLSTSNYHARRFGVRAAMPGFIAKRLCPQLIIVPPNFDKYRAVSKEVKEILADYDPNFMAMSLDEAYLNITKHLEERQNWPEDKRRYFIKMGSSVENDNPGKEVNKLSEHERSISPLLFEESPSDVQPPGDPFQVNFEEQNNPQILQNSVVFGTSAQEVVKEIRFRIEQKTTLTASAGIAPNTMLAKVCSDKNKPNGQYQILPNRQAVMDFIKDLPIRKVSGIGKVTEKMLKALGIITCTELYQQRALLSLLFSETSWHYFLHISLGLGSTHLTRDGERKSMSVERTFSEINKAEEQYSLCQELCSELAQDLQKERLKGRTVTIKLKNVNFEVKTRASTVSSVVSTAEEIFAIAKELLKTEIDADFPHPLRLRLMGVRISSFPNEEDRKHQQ

[6] = system: hpol β; details: cited from earlier work
[7] = system: human tumor cell lines; details: cited from earlier work

CC(C)c1ccc2c(c1)c(SC(C)(C)C)c(CC(C)(C)C(=O)O)n2Cc1ccc(Cl)cc1 [MK886]
IC50 ([1]; read-out: IC50 for inhibition of hpol η): ~46 µM
Inhibition of hpol ι relative to other Y-family pols ([2]; hpol ι versus other Y-family pols): five- to eight-times more effectively
IC50 ([2]; read-out: IC50 for inhibition of hpol ι): 9 µM

O=C1NC(=S)NC(=O)C1=Cc1cn(C(=O)c2cccc3ccccc23)c2ccc(Cl)cc12 [ITBA-16]
Fold by which IC50 for hpol η is lower than any of the other pols tested ([3]; hpol η versus seven other polymerases): over 2 fold
IC50 [3]: 16 µM and 15.8 µM
IC50 [4]: 35.3 ± 2.9 µM
IC50 [5]: 32.9 ± 3.2 µM

O=C1NC(=S)NC(=O)C1=Cc1cn(C(=O)c2ccc3ccccc3c2)c2ccccc12 [ITBA-18]
Inhibition of hpol η activity (percent activity relative to control), in words ([3]; 50 μM compound, relative to DMSO control (Figure 4C)): roughly equal activity against hpol η
IC50 [3]: 67.8 ± 3.3 µM

O=C(O)C1=CC(=C(c2ccc(O)c(C(=O)O)c2)c2ccc(O)c(C(=O)O)c2)C=CC1=O [aurintricarboxylic acid]
IC50 for inhibition of hpol η [1]: sub-micromolar
IC50 for inhibition of hpol ι [2]: sub-micromolar
IC50 for inhibition of hpol β [6]: sub-micromolar
Specificity against hpol β [6]: greater than 2 fold

O=c1oc2c(O)c(O)cc3c(=O)oc4c(O)c(O)cc1c4c23 [ellagic acid]
IC50 for inhibition of hpol η [1]: sub-micromolar
IC50 for inhibition of hpol ι [2]: sub-micromolar
IC50 for inhibition of hpol β [6]: sub-micromolar
Specificity against hpol β [6]: greater than 2 fold

O=C1NC(=S)NC(=O)C1=Cc1cn(C(=O)c2cccc3ccccc23)c2ccc(Cl)cc12 [ITBA-17]
Anti-proliferative and cytotoxic properties [7]: potent anti-proliferative and cytotoxic properties
